# Measured values published in patent US20210087565A1, “ANTISENSE ANTIBIOTICS AND BACTERIAL SECRETION BASED DELIVERY SYSTEM TO ELIMINATE DRUG-RESISTANT BACTERIA” (priority 2018, published 2021).
# What was measured:
# ESBL KPN = test: Potentiation of antibiotics with PNAs (Bliss Independence); assay type: cell-based, Klebsiella pneumoniae; settings: 10 μM PNA + 2 μg/mL tetracycline
# Description: (§1) Combinatorial effects were evaluated using the Bliss Independence model where the S parameter defines a deviation from no interaction as is defined as: […]
# (§2) Where ODAB is the OD at saturation time in only antibiotic, OD0 is the OD at saturation in no treatment, ODPNA is the OD at saturation in only antisense-PNA at 10 μM, and ODAB, PNA is the OD at saturation in a combination of antibiotic and antisense-PNA. Saturation time was determined as the time when the no treatment control reached its saturation growth phase. S>0 is a deviation towards synergy and S<0 is a deviation towards antagonism.
# NDM-1 KPN = test: as above; assay type: cell-based, Klebsiella pneumoniae; settings: 10 μM PNA + 8 μg/mL meropenem, compared to meropenem monotherapy
# Description: as §1, §2
# [1] = tested on: SL1344 infection of MC3T3-E1 osteoblast precursor cells; test: Salmonella infection of osteoblast precursor cells, T3SS-PNA treatment; assay type: cell-based, Salmonella enterica serovar typhimurium; settings: 10 μM, multiplicity of infection of 30, 18 hours
# Description: FIG. 11. […] Osteoblast precursor cells were grown for 24 hours on tissue culture treated 96-well plates prior to infection with SL1344 at a multiplicity of infection of 30. (A) The antisense inhibitor α-rpsD was added at 10 μM either without infection (No Treatment), after infection (Naked), or during infection (T3SS Transport). (B) After treatment for 18 hours the infection was imaged in brightfield and GFP channel. GFP expression corresponds to an intracellular infection with red arrows indicating hard to see GFP expression.
# Osteoblast Precursor Cell Culture: MC3T3-E1 osteoblast precursor cells were stored in liquid nitrogen in growth media supplemented with %10 dimethyl sulfoxide (DMSO, Sigma). Osteoblasts were recovered from freezer stocks and cultured in growth media consisting of α-Minimum Essential Media (α-MEM, Gibco) supplemented with 10% Fetal Bovine Serum (FBS, Advanced, Atlanta Biologics), and 50 units/mL Penicillin-Streptomycin (P/S, Fisher Scientific) at 37° C., 5% CO2, and controlled humidity. For biological replicates a freezer stock, at passage 9, was split three ways and each replicate continuously passaged as individual biological replicates at 80% confluency using 0.25% trypsin (HyClone). […]
substance,measurement,setting,value
"α-lexA: 12-mer antisense PNA cGGAATGAAAGC (SEQ ID NO. 17) targeting lexA, conjugated to (KFF)3K cell penetrating peptide via AEEA-linker (antisense CGGAATGAAAGC; all peptide nucleic acid (PNA); (KFF)3K cell-penetrating peptide attached via AEEA linker)",growth with combination therapy (in words),ESBL KPN,significant growth inhibition compared to each monotherapy
same,S-value (Bliss Independence model),ESBL KPN; S>0 indicates synergy,positive
"α-rpsD: 12-mer antisense PNA AGAAAATGGCAA (SEQ ID NO. 19) targeting rpsD, conjugated to (KFF)3K cell penetrating peptide via AEEA-linker (all peptide nucleic acid (PNA); (KFF)3K cell-penetrating peptide attached via AEEA linker)",growth with combination therapy (in words),NDM-1 KPN,significantly reduced the growth
same,Salmonella infection of osteoblast cells (in words),[1],eliminates Salmonella infection
